Assay [1] deals with IFN-γ. In words: Experiment 5: serum IFN-γ cytokine analysis. It is filed as in vivo, human MUC1.Tg C57BL/6 mice. Conditions: TRIP 100 mg/kg or letrozole 0.8 mg/kg daily oral 14 days. How it is done:
FIG. 13. Effects of TRIP on serum IFN-γ compared to estradiol and letrozole. Serum IFN-γ from untreated control, TRIP (100 mg/kg), estradiol (E2; 25 μg/kg), and letrozole (0.8 mg/kg) groups were analyzed following daily treatment for 14 days (n=8 all groups). **p<0.01, ***p<0.001.
TRIP and letrozole were prepared in DMSO and peanut oil as described above in Experiment 2 and administered daily for 14 days by oral gavage (100 μL). Estradiol was dissolved in 100% ethanol, diluted in PBS to achieve the desired concentration, and then administered daily for 14 days by s.c. injection at rotating sites using a 25-gauge needle. In Week 19, the study was terminated, 24 hours after the last treatments, and serum and spleens were collected for surface marker and Treg analyses.

The test system of assay [2] is regulatory T cells (Tregs). In words: Experiment 5: regulatory T cells (FoxP3+/CD4+) by flow cytometry. It is filed as in vivo, human MUC1.Tg C57BL/6 mice. Conditions: TRIP 100 mg/kg or letrozole 0.8 mg/kg daily oral 14 days. How it is done:
(§1) A total of 32 female human MUC1.Tg C57BL/6 mice, starting at approximately six weeks of age, were treated with urethane as described (Wurz G T. et al., J. Transl. Med., 11:64 (2013)). Two weeks following the final dose of urethane (Week 17), the mice were randomized into four treatment groups of approximately equal average weight (n=8, all groups): Control (no treatment); TRIP (i.e., ospemifene) 100 mg/kg; estradiol 25 μg/kg; and letrozole 0.8 mg/kg. TRIP and letrozole were prepared in DMSO and peanut oil as described above in Experiment 2 and administered daily for 14 days by oral gavage (100 μL). Estradiol was dissolved in 100% ethanol, diluted in PBS to achieve the desired concentration, and then administered daily for 14 days by s.c. injection at rotating sites using a 25-gauge needle. In Week 19, the study was terminated, 24 hours after the last treatments, and serum and spleens were collected for surface marker and Treg analyses.
(§2) After two weeks of treatment, lymphocytes were isolated from spleen. T-cell surface markers (CD4, CD8, PD-1, CD28) and regulatory T cells (Tregs) were analyzed by flow cytometry.
Background: In flow cytometry, cells or beads pass a laser one at a time.

Assay [3] relates to T-cell surface markers (CD4, CD8, PD-1, CD28). The experiment in a line: Experiment 5: T-cell surface markers of spleen lymphocytes by flow cytometry. It is filed as in vivo, human MUC1.Tg C57BL/6 mice. On the procedure:
FIG. 11. Lymphocyte phenotypes following different hormonal treatments. (A) CD3+CD4+; (B) CD3+CD8+; (C) CD3+CD28+; (D) CD8+CD28+; (E) CD3+PD-1+; and (F) CD8+PD-1+; T cell surface markers were stained with indicated antibodies after […] of TRIP (100 mg/kg), estradiol (E2; 25 μg/kg), and letrozole (0.8 mg/kg) treatments (n=8 all groups).
as §1, §2

Assay [4] relates to IFN-γ. The experiment in a line: IFN-γ mRNA expression in Jurkat cells by qRT-PCR, normalized with GAPDH. The format is cell-based, human. How it is done:
(§3) FIG. 1. Interferon gamma (IFN-γ) and interleukin (IL)-2 expression in human Jurkat cells following exposure to TRIP in vitro. Jurkat cells (2×10^6) were treated with different concentrations of TRIP as indicated for 24 hours. (A) IFN-γ and (B) IL-2 mRNA expression levels were detected by quantitative real-time polymerase chain reaction (qRT-PCR) and normalized with the expression of GAPDH. *p<0.05, **p<0.01, ***p<0.001.
FIG. 2. Effect of tamoxifen on TRIP-induced expression of IFN-γ in vitro. Jurkat cells (2×10^6) were treated with TRIP (2.5 μM) and/or tamoxifen (2.5 μM) for 24 hours. The expression levels of IFN-γ were analyzed by qRT-PCR and normalized with GAPDH. **p<0.01, ***p<0.005.
(§4) FIG. 3. Effects of TRIP alone and in combination with trifluoperazine (TFP) or LY294002 (LY) on IFN-γ and IL-2 in human Jurkat cells in vitro. Jurkat cells (2×10^6) were pretreated with different concentrations of (A, B) TFP (0, 0.1, 1.0, 5.0, and 10.0 μM) and (C, D) LY294002 (0, 1, 5, 10, and 25 μM) for 1 hour, then incubated with medium containing 2.5 μM of TRIP for 24 hours. (A, C) IFN-γ and (B, D) IL-2 mRNA expression levels were detected by qRT-PCR and normalized with the expression of GAPDH. *p<0.05, **p<0.01, ***p<0.001.
(§5) FIG. 4. Effects of calmodulin, PI3K and MAPK inhibition on TRIP-induced expression of IFN-γ and IL-2 in human Jurkat cells in vitro. Jurkat cells (2×10^6) were pretreated with PD98059 (50 μM), TFP (10 μM) and LY294002 (25 μM) for 1 hour, then incubated with medium containing 2.5 μM of TRIP for 24 hours. (A) IFN-γ and (B) IL-2 mRNA expression levels were detected by qRT-PCR and normalized with the expression of GAPDH. **p<0.01, ***p<0.001, ****p<0.0001.
(§6) The potential immune regulating effects of TRIP and the possible mechanism(s) involved were determined with in vitro experiments examining the expression of T cell activating cytokines in human acute T cell leukemia Jurkat cells. The expression of IFN-γ and IL-2 RNA following exposure to increasing concentrations of TRIP (i.e., ospemifene) were first examined, followed by the effects of combining tamoxifen with TRIP on the expression of these cytokines. Different inhibitors of key T cell activation pathways—trifluoperazine (TFP), an inhibitor of calmodulin, LY294002, an inhibitor of PI3K, and PD98059, a MAPK inhibitor—in combination with TRIP were assessed for their effects on TRIP-induced expression of IFN-γ and IL-2 in Jurkat cells.
(§7) Jurkat cells (2.0×10^6) were treated with different concentrations of TRIP as indicated on the x-axis for 24 hours. (A) IFN-γ and (B) IL-2 mRNA expression levels were detected by quantitative real-time polymerase chain reaction (qRT-PCR) and normalized with the expression of GAPDH. *p<0.05, **p<0.01, ***p<0.001.
The expression levels of IFN-γ were analyzed by qRT-PCR and normalized with GAPDH. **p<0.01, ***p<0.001.
(§8) T cell activation requires multiple signals including PI3K, MAPK and calcium signaling pathways, and in order to identify the potential mechanism through which TRIP affects immune activation, Jurkat cells (2.0×10^6) were pretreated with different concentrations of TFP (0, 0.1, 1.0, 5.0 and 10.0 μM) (A, B) or LY294002 (0, 1, 5, 10 and 25 μM) (C, D) for one hour, then incubated with medium containing 2.5 μM TRIP for 24 hours. IFN-γ and IL-2 expression levels were detected by qRT-PCR and normalized with the expression of GAPDH. *p<0.05, **p<0.01, ***p<0.001.
(§9) Jurkat cells (2×10^6) were pretreated with PD98059 (50 μM), TFP (10 μM) or LY294002 (25 μM) for one hour, then incubated with medium containing 2.5 μM TRIP for 24 hours. (A) IFN-γ and (B) IL-2 mRNA expression levels were detected by qRT-PCR and normalized with expression of GAPDH. **p<0.01, ***p<0.001, ****p<0.0001.
The effects on T cell activation of different functional group substitutions on the TRIP chemical structure (Formula Ia) were examined by measuring the expression of IFN-γ and IL-2 RNA in human acute T cell leukemia Jurkat cells in vitro. […]

The test system of another assay is IL-2. In words: IL-2 mRNA expression in Jurkat cells by qRT-PCR, normalized with GAPDH. The format is cell-based, human. On the procedure:
as §3, §4, §5, §6, §7, §8, §9
The effects on T cell activation of different functional group substitutions on the TRIP chemical structure (Formula Ia) were examined by measuring the expression of IFN-γ and IL-2 RNA in human acute T cell leukemia Jurkat cells in vitro.
A strong increase is defined as a ≥50% increase compared to the control. A moderate increase is defined as a 25-49% increase compared to the control. A weak increase is defined as a 0-24% increase compared to the control. No effect is when there was no increase compared to the control.

The mark [5] stands for this setting: mRNA in Jurkat cells in vitro, relative to control sample without TRIP compound.
[6] abbreviates: Jurkat cells pretreated 1 hour with PD98059 50 μM, TFP 10 μM or LY294002 25 μM, then 2.5 μM TRIP 24 hours (FIG. 4).
The mark [7] stands for this setting: Jurkat cells pretreated 1 hour with TFP 0.1-10.0 μM or LY294002 1-25 μM, then 2.5 μM TRIP 24 hours (FIG. 3).

Take `N#Cc1ccc(C(c2ccc(C#N)cc2)n2cncn2)cc1` [letrozole, reference compound]: the “serum IFN-γ concentrations compared to estradiol” value with IFN-γ [1] is “significantly increased”. Moreover, the “Tregs (FoxP3+/CD4+) compared to estradiol treatment” value in assay [2] is given as “significantly inhibited”. The “expression of surface markers, including CD8 and CD28, vs control” value in assay [3] (TRIP 100 mg/kg or letrozole 0.8 mg/kg daily oral 14 days) is listed as “no difference”. Also, in assay [3] (letrozole 0.8 mg/kg daily oral 14 days), the “CD4+ T cell population” value was “lower”.
With `CC/C(=C(\c1ccccc1)c1ccc(OCCN(C)C)cc1)c1ccccc1` [tamoxifen, reference compound], the “expression of IFN-γ compared to control” value with IFN-γ [4] (Jurkat cells, single agent 2.5 μM, 24 hours (FIG. 2)) was “no apparent effect”. Also, the “effect on the T cell activating ability of TRIP (IFN-γ expression)” value in the assay on IFN-γ [4] (Jurkat cells, tamoxifen 2.5 μM with TRIP 2.5 μM, 24 hours) is reported as “does not affect”.
Turning to `OCCOCCOc1ccc(/C(=C(/CCCl)c2ccccc2)c2ccccc2)cc1` [Z-2-{2-[4-(4-chloro-1,2-diphenyl-but-1-enyl)-phenoxy]-ethoxy}-ethanol], in the assay on IL-2 (setting [5]), the “IL-2 Expression” value was “+++ (strong increase)”. The “IFN-γ Expression” value in the assay with IFN-γ [4] (setting [5]) is “+++ (strong increase)”.
`COc1cccc(-c2cc(=O)c3ccccc3o2)c1N` [PD98059, reference compound]: the “TRIP-induced expression of IL-2” value in the assay on IL-2 (setting [6]) is “did not appear to affect”. Moreover, in the assay with IFN-γ [4] (setting [6]), the “TRIP-induced expression of IFN-γ” value is reported as “did not appear to affect”.
As to `CN1CCN(CCCN2c3ccccc3Sc3ccc(C(F)(F)F)cc32)CC1` [TFP, trifluoperazine, reference compound], the “TRIP-induced expression of IL-2” value in the assay on IL-2 (setting [6]) and with IL-2 (setting [7]) was “significantly decreased” throughout. Besides, the “TRIP-induced expression of IFN-γ” value in the assay with IFN-γ [4] (setting [6]) and with IFN-γ [4] (setting [7]) was “significantly decreased” throughout.

The values are drawn from patent US10154970B2, “Methods for immunomodulation of cancer and infectious disease therapy” (The Regents of the University of California, priority 2014, dated 2018).
